Earlier results as cited in patent US20060057174A1, “Natural-non-toxic insect repellant” (priority 2004, published 2006).

Tested on: Aedes aegypti
Conditions: ingredients of Skin-So-Soft bath oil

| SMILES | repellent to Aedes aegypti |
| --- | --- |
| O=C(c1ccccc1)c1ccccc1 [benzophenone] | repellent |
| CC(C)OC(=O)CCCCC(=O)OC(C)C [diisopropyl adipate] | repellent |
